In brackets after ≈: the same amount, converted by molar mass.
What was measured:
Format in all cases: physicochemical
[1] = Solvent screening (solubility of compound A); conditions: for solubility: thermodynamic from solid, Sonication
Method: 10-20 mg of 3″-tert-butyl-4′-(2-hydroxyethoxy)-4″-pyrrolidin-1-yl[1,1′;3′,1″]-terphenyl-4-carboxylic acid (hereinafter “compound A”) was placed into a 30 ml vial. 200 μl of the selected solvent was added and the vial was stirred by magnetic stirring. • If the compound A was not dissolved, the vial was placed into ultrasonic bath with mild heating. • If the compound A was still not dissolved, further 200 μl of the solvent was added to the vial and the magnetic stirring and ultrasonication were repeated.
The whole procedure (addition of the solvent, stirring, ultrasonication, heating) was repeated stepwise until every compound A particles was dissolved and a clear, translucent liquid was obtained.

[2] = Precipitation test; conditions: every tested organic solvent at 1 mg/mL concentration
Method: 1 mg/ml solutions of compound A were prepared in each appropriate solvent.

[3] = Stabilizer screening (colloid stability after precipitation); conditions: Compound A 1.0 mg
Method: If the colloid solution was stable over 2 hours (no aggregation, sedimentation, crystal forming), and no aggregation occurred, the sample was lyophilized. • If precipitation occurred, however the colloid solution was not stable over the whole solid formulation procedure, other stabilizers were tested. Results

For `CC(C)(C)c1cc(-c2cc(-c3ccc(C(=O)O)cc3)ccc2OCCO)ccc1N1CCCC1` [Compound A, 3″-tert-butyl-4′-(2-hydroxyethoxy)-4″-pyrrolidin-1-yl[1,1′;3′,1″]-terphenyl-4-carboxylic acid], the “solubility profile (in words)” value ([1]; acetone) was “slightly soluble”, the “solubility profile (in words)” value ([1]; acetonitrile) was “very slightly soluble” and the “solubility profile (in words)” value ([1]; ethanol) was “slightly soluble”. For the same compound, the “solubility profile (in words)” value ([1]; isopropanol) was “slightly soluble”, the “solubility profile (in words)” value ([1]; methanol) was “slightly soluble” and the solubility ([1]; organic solvent or mixture, Acetone, RT) was 3000 µg/mL (≈ 6.53 mM). For the same compound, the solubility ([1]; organic solvent or mixture, Acetonitrile, RT) was 400 µg/mL (≈ 0.87 mM), the solubility ([1]; organic solvent or mixture, Ethanol, RT) was 4900 µg/mL (≈ 10.7 mM) and the solubility ([1]; organic solvent or mixture, Isopropanol, RT) was 3000 µg/mL (≈ 6.53 mM). The solubility ([1]; organic solvent or mixture, Methanol, RT) was 1700 µg/mL (≈ 3.7 mM), the solubility ([1]; organic solvent or mixture, Pyridine, RT) was 34500 µg/mL (≈ 75.1 mM) and the solubility ([1]; organic solvent or mixture, Tetrahydrofuran, RT) was 30500 µg/mL (≈ 66.4 mM). For the same compound, the “solubility profile (in words)” value ([1]; pyridine) was “soluble”, the “solubility profile (in words)” value ([1]; tetrahydrofuran) was “soluble” and the solubility ([1]; Water, T = 45° C.) was under 50 µg/mL. The “solubility profile (in words)” value ([1]; water) was “practically insoluble”, the “precipitation on addition of anti-solvent” value [2] was “precipitated” and the Observation ([3]; 2 mg Klucel EF, 1 mL EtOH, 4 mL water) was “Aggregated”. The Observation ([3]; 2 mg Klucel EF, 1 mL IPA, 4 mL water) was “Aggregated”, the Observation ([3]; 2 mg Klucel EF, 1 mL MeOH, 4 mL water) was “Aggregated” and the Observation ([3]; 2 mg Klucel EF, 1 mL THF, 4 mL water) was “Aggregated”. For the same compound, the Observation ([3]; 2 mg Klucel LF, 1 mL EtOH, 4 mL water) was “Aggregated”, the Observation ([3]; 2 mg Klucel LF, 1 mL IPA, 4 mL water) was “Aggregated” and the Observation ([3]; 2 mg Klucel LF, 1 mL MeOH, 4 mL water) was “Aggregated”. For the same compound, the Observation ([3]; 2 mg Klucel LF, 1 mL THF, 4 mL water) was “Aggregated”, the Observation ([3]; 2 mg Lutrol F 127, 1 mL ACE, 4 mL water) was “Aggregated immediately” and the Observation ([3]; 2 mg Lutrol F 127, 1 mL EtOH, 4 mL water) was “Aggregated”. The Observation ([3]; 2 mg Lutrol F 127, 1 mL MeOH, 4 mL water) was “Cloudy immediately”, the Observation ([3]; 2 mg Lutrol F 127, 1 mL THF, 5 mL water) was “Aggregated” and the “Observation: Aggregated within” value ([3]; 2 mg Luviskol VA64, 1 mL ACE, 4 mL water) was “Aggregated within 5 min”. The “Observation: Colloid, Stable for” value ([3]; 2 mg Luviskol VA64, 1 mL EtOH, 4 mL water) was “Colloid, Stable for 30 min”, the Observation ([3]; 2 mg Luviskol VA64, 1 mL EtOH, 7 mL 0.05 mg/mL BAC solution) was “Aggregated immediately” and the Observation ([3]; 2 mg Luviskol VA64, 1 mL EtOH, 7 mL 0.05 mg/mL DSS solution) was “Aggregated immediately”. For the same compound, the Observation ([3]; 2 mg Luviskol VA64, 1 mL EtOH, 7 mL 0.05 mg/mL Mannitol solution) was “Aggregated immediately”, the Observation ([3]; 2 mg Luviskol VA64, 1 mL EtOH, 7 mL 0.05 mg/mL NaOAc solution) was “Aggregated immediately” and the Observation ([3]; 2 mg Luviskol VA64, 1 mL EtOH, 7 mL 0.05 mg/mL SDS solution) was “Aggregated immediately”. The Observation ([3]; 2 mg Luviskol VA64, 1 mL EtOH, 7 mL 0.05 mg/mL citric acid solution) was “Aggregated immediately”, the Observation ([3]; 2 mg Luviskol VA64, 1 mL EtOH, 7 mL 0.5 mg/mL BAC solution) was “Aggregated immediately” and the “Observation: Aggregated within” value ([3]; 2 mg Luviskol VA64, 1 mL EtOH, 7 mL 0.5 mg/mL DSS solution) was “Aggregated within 1 hour”. The Observation ([3]; 2 mg Luviskol VA64, 1 mL EtOH, 7 mL 0.5 mg/mL Mannitol solution) was “Aggregated immediately”, the “Observation: Stable for” value ([3]; 2 mg Luviskol VA64, 1 mL EtOH, 7 mL 0.5 mg/mL NaOAc solution, at RT) was “Stable for 1 day at RT” and the “Observation: Aggregated within” value ([3]; 2 mg Luviskol VA64, 1 mL EtOH, 7 mL 0.5 mg/mL SDS solution) was “Aggregated within 1 hour”. The Observation ([3]; 2 mg Luviskol VA64, 1 mL EtOH, 7 mL 0.5 mg/mL citric acid solution) was “Aggregated immediately”, the Observation ([3]; 2 mg Luviskol VA64, 1 mL IPA, 4 mL water) was “Aggregated” and the “Observation: Aggregated after” value ([3]; 2 mg Luviskol VA64, 1 mL MeOH, 4 mL water) was “Aggregated after 25 min”. For the same compound, the Observation ([3]; 2 mg Luviskol VA64, 1 mL THF, 4 mL water) was “Aggregated”, the Observation ([3]; 2 mg PEG2000, 1 mL ACE, 4 mL water) was “Aggregated immediately” and the Observation ([3]; 2 mg PEG2000, 1 mL EtOH, 4 mL water) was “Aggregated”. The Observation ([3]; 2 mg PEG2000, 1 mL IPA, 4 mL water) was “Aggregated”, the Observation ([3]; 2 mg PEG2000, 1 mL MeOH, 4 mL water) was “Aggregated” and the Observation ([3]; 2 mg PEG2000, 1 mL THF, 4 mL water) was “Aggregated”. For the same compound, the Observation ([3]; 2 mg PEG6000, 1 mL ACE, 4 mL water) was “Aggregated immediately”, the Observation ([3]; 2 mg PEG6000, 1 mL EtOH, 4 mL water) was “Aggregated” and the Observation ([3]; 2 mg PEG6000, 1 mL MeOH, 4 mL water) was “Aggregated”. The “Observation: Aggregated within” value ([3]; 2 mg PEOX50, 1 mL ACE, 4 mL water) was “Aggregated within 5 min”, the “Observation: Colloid, Stable for” value ([3]; 2 mg PEOX50, 1 mL EtOH, 4 mL water) was “Colloid, Stable for 10 min” and the “Observation: Aggregated within” value ([3]; 2 mg PEOX50, 1 mL EtOH, 7 mL 0.5 mg/mL DSS solution) was “Aggregated within 1 hour”. For the same compound, the “Observation: Aggregated within” value ([3]; 2 mg PEOX50, 1 mL EtOH, 7 mL 0.5 mg/mL NaOAc solution) was “Aggregated within 1 hour”, the “Observation: Aggregated within” value ([3]; 2 mg PEOX50, 1 mL EtOH, 7 mL 0.5 mg/mL SDS solution) was “Aggregated within 1 hour” and the Observation ([3]; 2 mg PEOX50, 1 mL EtOH, 7 mL 0.5 mg/mL citric acid solution) was “Aggregated immediately”. For the same compound, the Observation ([3]; 2 mg PEOX50, 1 mL IPA, 4 mL water) was “Aggregated”, the Observation ([3]; 2 mg PEOX50, 1 mL MeOH, 4 mL water) was “Aggregated” and the Observation ([3]; 2 mg PEOX50, 1 mL THF, 4 mL water) was “Aggregated”. For the same compound, the “Observation: Aggregated within” value ([3]; 2 mg PEOX500, 1 mL ACE, 4 mL water) was “Aggregated within 5 min”, the Observation ([3]; 2 mg PEOX500, 1 mL EtOH, 4 mL water) was “Aggregated” and the Observation ([3]; 2 mg PEOX500, 1 mL IPA, 4 mL water) was “Aggregated”. The Observation ([3]; 2 mg PEOX500, 1 mL MeOH, 4 mL water) was “Aggregated”, the Observation ([3]; 2 mg PEOX500, 1 mL THF, 4 mL water) was “Aggregated” and the Observation ([3]; 2 mg PMAMVE, 1 mL EtOH, 4 mL water) was “Aggregated”. For the same compound, the Observation ([3]; 2 mg PMAMVE, 1 mL MeOH, 4 mL water) was “Aggregated”, the “Observation: Colloid, Stable for” value ([3]; 2 mg PVP10, 1 mL EtOH, 4 mL water) was “Colloid, Stable for 30 min” and the Observation ([3]; 2 mg PVP10, 1 mL EtOH, 7 mL 0.05 mg/mL BAC solution) was “Aggregated immediately”. The Observation ([3]; 2 mg PVP10, 1 mL EtOH, 7 mL 0.05 mg/mL DSS solution) was “Aggregated immediately”, the Observation ([3]; 2 mg PVP10, 1 mL EtOH, 7 mL 0.05 mg/mL Mannitol solution) was “Aggregated immediately” and the Observation ([3]; 2 mg PVP10, 1 mL EtOH, 7 mL 0.05 mg/mL NaOAc solution) was “Aggregated immediately”.
